In patent publication US20240041386A1, “MICROCHIP BASED RECORDING OF NEUROVASCULAR ACTIVITY AND BEHAVIOR” (NEUREFLECT, INC., priority 2021, published 2024):

Test system: cortical spreading depression (CSD)
Test: Optically triggered cortical spreading depression (CSD) threshold in mice with skull-attached microchip
Format: in vivo
Details: Thy1/ChR2 mice under isoflurane anesthesia, compared with the wake state; data not shown
Experimental: Cortical spreading depression (CSD) in freely behaving mice was triggered optically by administering sequential pulses of light with increasing duration until CSD was observed based on OIS. After each light pulse, OIS was monitored for at least 10 minutes for the occurrence of CSD. If CSD occurred, no further stimulus pulses were delivered, whereas if no CSD occurred, then the duration was increased with the subsequent pulse. To trigger CSD under anesthesia, the cage that the animal was housed in was rapidly flushed with 2% isoflurane in a 20/80% O2/N2 gas mixture. After the animal lost consciousness, the isoflurane was reduced to 1.5% to sustain anesthesia. For prolonged experiments a heating pad set at 37° C. was placed under the cage and a small paper blanket was placed over the animal to maintain its core temperature. Breathing pattern and paw color were continuously monitored. Anesthesia was maintained until CBV returned to baseline levels at the end of the CSD. […] After each light pulse, OIS was monitored for a t least 10 minutes for a CSD, If CSD occurred, no further pulses were delivered. If a baseline threshold was well determined, stimulations were started 3-4 steps before that baseline for subsequent CSDs. […] These measurements illustrate that threshold for optically triggering CSD can be quantified based upon the duration of light stimulation required to evoke CSD. […]

## FC(F)OC(Cl)C(F)(F)F (stereo not shown) [isoflurane]
  threshold for triggering CSD (duration of blue light stimulation required to evoke CSD): significantly lower than in the wake state
